# Values joined by “and” are separate entries in the source; they are usually repeats but may differ in a detail not shown here. Equal values may be shown once.
# Legend:
# Conditions in all cases: scale 0 to 100
# [1] = test system: pigweed, palmer; assay: Test F postemergence; type: in vivo, Amaranthus palmeri
# Source text: (§1) Seeds of plant species selected from corn (Zea mays), soybean (Glycine max), velvetleaf (Abutilon theophrasti), lambsquarters (Chenopodium album), wild poinsettia (Euphorbia heterophylla), pigweed, palmer (palmer pigweed, Amaranthus palmeri), common waterhemp (Amaranthus rudis), surinam grass (Brachiaria decumbens), large crabgrass (Digitaria sanguinalis), crabgrass, Brazil (Brazilian crabgrass, Digitaria horizontalis), fall panicum (Panicum dichotomiflorum), giant foxtail (Setaria faberii), green foxtail (Setaria viridis), goosegrass (Eleusine indica), johnsongrass (Sorghum halepense), common ragweed (Ambrosia elation), barnyardgrass (Echinochloa crus-galli), southern sandbur (Cenchrus echinatus), arrowleaf sida (Sida rhombifolia), Italian ryegrass (Lolium multiflorum), dayflower, VA (Virginia (VA) dayflower, Commelina virginica), field bindweed (Convolvulus arvensis), cocklebur (common cocklebur, Xanthium strumarium), morningglory (Ipomoea coccinea), nightshade (eastern black nightshade, Solanum ptycanthum), kochia (Kochia scoparia), yellow nutsedge (Cyperus esculentus), and hairy beggarticks (Bidens pilosa), were planted into a silt loam soil and treated preemergence with test chemicals formulated in a non-phytotoxic solvent mixture which included a surfactant.
# (§2) At the same time, plants from these crop and weed species and also horseweed (Canada horseweed, Conyza canadensis), smartweed (ladysthumb smartweed, Polygonum persicaria), waterhemp_RES1, (ALS & Triazine resistant common waterhemp, Amaranthus rudis), and waterhemp_RES2, (ALS & HPPD resistant common waterhemp, Amaranthus rudis) were treated with postemergence applications of test chemicals formulated in the same manner. Plants ranged in height from 2 to 18 cm for postemergence treatments (1- to 4-leaf stage). Treated plants and controls were maintained in a greenhouse for 14 to 21 days, after which time all species were compared to controls and visually evaluated. Plant response ratings, summarized in Table F, are based on a scale of 0 to 100 where 0 is no effect and 100 is complete control. A dash (-) response means no test result.
# [2] = test system: fall panicum; assay: Test F postemergence; type: in vivo, Panicum dichotomiflorum
# Source text: as §1, §2
# [3] = test system: arrowleaf sida; assay: Test F postemergence; type: in vivo, Sida rhombifolia
# Source text: as §1, §2
# [4] = test system: soybean; assay: Test F postemergence; type: in vivo, Glycine max
# Source text: as §1, §2
# [5] = test system: Italian ryegrass; assay: Test F postemergence; type: in vivo, Lolium multiflorum
# Source text: as §1, §2
# [6] = test system: southern sandbur; assay: Test F postemergence; type: in vivo, Cenchrus echinatus
# Source text: as §1, §2
# [7] = test system: smartweed; assay: Test F postemergence; type: in vivo, Polygonum persicaria
# Source text: as §1, §2
# [8] = test system: wild poinsettia; assay: Test F postemergence; type: in vivo, Euphorbia heterophylla
# Source text: as §1, §2
# [9] = test system: dayflower, VA; assay: Test F postemergence; type: in vivo, Commelina virginica
# Source text: as §1, §2
# [10] = test system: waterhemp_RES2 (ALS & HPPD resistant common waterhemp); assay: Test F postemergence; type: in vivo, Amaranthus rudis
# Source text: as §1, §2
# [11] = test system: common waterhemp; assay: Test F postemergence; type: in vivo, Amaranthus rudis
# Source text: as §1, §2
# [12] = test system: waterhemp_RES1 (ALS & Triazine resistant common waterhemp); assay: Test F postemergence; type: in vivo, Amaranthus rudis
# Source text: as §1, §2
# [13] = test system: cocklebur; assay: Test F preemergence; type: in vivo, Xanthium strumarium
# Source text: as §1, with “surfactant. […]” for “surfactant.”
compound,measurement,setting,value
CCCNC(=O)c1cc(CC)n(Cc2nc(C(F)(F)F)nn2C)n1 [Compound 109],"Plant response rating, Pigweed, Palmer","[1]; Postemergence, 16 g ai/ha",30
same,"Plant response rating, Pigweed, Palmer","[1]; Postemergence, 31 g ai/ha",50
same,"Plant response rating, Pigweed, Palmer","[1]; Postemergence, 125 g ai/ha",60
same,"Plant response rating, Pigweed, Palmer","[1]; Postemergence, 250 g ai/ha",70
same,"Plant response rating, Fall Panicum","[2]; Postemergence, 16 g ai/ha",10
same,"Plant response rating, Fall Panicum","[2]; Postemergence, 31 g ai/ha",10
same,"Plant response rating, Fall Panicum","[2]; Postemergence, 125 g ai/ha",20
same,"Plant response rating, Fall Panicum","[2]; Postemergence, 250 g ai/ha",30
same,"Plant response rating, Arrowleaf Sida","[3]; Postemergence, 16 g ai/ha",30
same,"Plant response rating, Arrowleaf Sida","[3]; Postemergence, 31 g ai/ha",30
same,"Plant response rating, Arrowleaf Sida","[3]; Postemergence, 125 g ai/ha",50
same,"Plant response rating, Arrowleaf Sida","[3]; Postemergence, 250 g ai/ha",60
same,"Plant response rating, Soybean","[4]; Postemergence, 16 g ai/ha",50
same,"Plant response rating, Soybean","[4]; Postemergence, 31 g ai/ha",70
same,"Plant response rating, Soybean","[4]; Postemergence, 125 g ai/ha",95
same,"Plant response rating, Soybean","[4]; Postemergence, 250 g ai/ha",95
same,"Plant response rating, Italian Ryegrass","[5]; Postemergence, 16 g ai/ha",0
same,"Plant response rating, Italian Ryegrass","[5]; Postemergence, 31 g ai/ha",0
same,"Plant response rating, Italian Ryegrass","[5]; Postemergence, 125 g ai/ha",15
same,"Plant response rating, Italian Ryegrass","[5]; Postemergence, 250 g ai/ha",30
same,"Plant response rating, Southern Sandbur","[6]; Postemergence, 16 g ai/ha",0
same,"Plant response rating, Southern Sandbur","[6]; Postemergence, 31 g ai/ha",0
same,"Plant response rating, Southern Sandbur","[6]; Postemergence, 125 g ai/ha",10
same,"Plant response rating, Southern Sandbur","[6]; Postemergence, 250 g ai/ha",20
same,"Plant response rating, Smartweed","[7]; Postemergence, 16 g ai/ha",20
same,"Plant response rating, Smartweed","[7]; Postemergence, 31 g ai/ha",50
same,"Plant response rating, Smartweed","[7]; Postemergence, 125 g ai/ha",70
same,"Plant response rating, Smartweed","[7]; Postemergence, 250 g ai/ha",80
same,"Plant response rating, Wild Poinsettia","[8]; Postemergence, 16 g ai/ha",40
same,"Plant response rating, Wild Poinsettia","[8]; Postemergence, 31 g ai/ha",50
same,"Plant response rating, Wild Poinsettia","[8]; Postemergence, 125 g ai/ha",70
same,"Plant response rating, Dayflower, VA","[9]; Postemergence, 16 g ai/ha",15
same,"Plant response rating, Dayflower, VA","[9]; Postemergence, 31 g ai/ha",20
same,"Plant response rating, Dayflower, VA","[9]; Postemergence, 125 g ai/ha",40
same,"Plant response rating, Dayflower, VA","[9]; Postemergence, 250 g ai/ha",70
same,"Plant response rating, Waterhemp_RES2","[10]; Postemergence, 16 g ai/ha",30
same,"Plant response rating, Waterhemp_RES2","[10]; Postemergence, 31 g ai/ha",50
same,"Plant response rating, Waterhemp_RES2","[10]; Postemergence, 125 g ai/ha",60
same,"Plant response rating, Waterhemp_RES2","[10]; Postemergence, 250 g ai/ha",70
same,"Plant response rating, Common Waterhemp","[11]; Postemergence, 16 g ai/ha",50
same,"Plant response rating, Common Waterhemp","[11]; Postemergence, 31 g ai/ha",50
same,"Plant response rating, Common Waterhemp","[11]; Postemergence, 125 g ai/ha",75
same,"Plant response rating, Common Waterhemp","[11]; Postemergence, 250 g ai/ha",80
CCc1cc(-c2ccc(C(F)(F)F)cc2)nn1Cc1ccnc(C(F)(F)F)c1 [Compound 110],"Plant response rating, Pigweed, Palmer","[1]; Postemergence, 16 g ai/ha",85
same,"Plant response rating, Pigweed, Palmer","[1]; Postemergence, 31 g ai/ha",90
same,"Plant response rating, Pigweed, Palmer","[1]; Postemergence, 125 g ai/ha",85
same,"Plant response rating, Pigweed, Palmer","[1]; postemergence, 62 g ai/ha",50 and 85
same,"Plant response rating, Pigweed, Palmer","[1]; postemergence, 8 g ai/ha",60
same,"Plant response rating, Fall Panicum","[2]; Postemergence, 16 g ai/ha",10
same,"Plant response rating, Fall Panicum","[2]; Postemergence, 31 g ai/ha",20
same,"Plant response rating, Fall Panicum","[2]; Postemergence, 125 g ai/ha",30
same,"Plant response rating, Fall Panicum","[2]; postemergence, 62 g ai/ha",20
same,"Plant response rating, Fall Panicum","[2]; postemergence, 8 g ai/ha",10
same,"Plant response rating, Arrowleaf Sida","[3]; Postemergence, 16 g ai/ha",75
same,"Plant response rating, Arrowleaf Sida","[3]; Postemergence, 31 g ai/ha",85
same,"Plant response rating, Arrowleaf Sida","[3]; Postemergence, 125 g ai/ha",85
same,"Plant response rating, Arrowleaf Sida","[3]; postemergence, 62 g ai/ha",40 and 75
same,"Plant response rating, Arrowleaf Sida","[3]; postemergence, 8 g ai/ha",60
same,"Plant response rating, Soybean","[4]; Postemergence, 16 g ai/ha",30
same,"Plant response rating, Soybean","[4]; Postemergence, 31 g ai/ha",30
same,"Plant response rating, Soybean","[4]; Postemergence, 125 g ai/ha",30
same,"Plant response rating, Soybean","[4]; postemergence, 8 g ai/ha",20
same,"Plant response rating, Italian Ryegrass","[5]; Postemergence, 16 g ai/ha",20
same,"Plant response rating, Italian Ryegrass","[5]; Postemergence, 31 g ai/ha",20
same,"Plant response rating, Italian Ryegrass","[5]; Postemergence, 125 g ai/ha",30
same,"Plant response rating, Italian Ryegrass","[5]; postemergence, 8 g ai/ha",10
same,"Plant response rating, Southern Sandbur","[6]; Postemergence, 16 g ai/ha",20
same,"Plant response rating, Southern Sandbur","[6]; Postemergence, 31 g ai/ha",25
same,"Plant response rating, Southern Sandbur","[6]; Postemergence, 125 g ai/ha",30
same,"Plant response rating, Southern Sandbur","[6]; postemergence, 8 g ai/ha",20
same,"Plant response rating, Smartweed","[7]; postemergence, 62 g ai/ha",50
same,"Plant response rating, Wild Poinsettia","[8]; Postemergence, 16 g ai/ha",70
same,"Plant response rating, Wild Poinsettia","[8]; Postemergence, 31 g ai/ha",75
same,"Plant response rating, Wild Poinsettia","[8]; Postemergence, 125 g ai/ha",95
same,"Plant response rating, Wild Poinsettia","[8]; postemergence, 62 g ai/ha",60 and 80
same,"Plant response rating, Wild Poinsettia","[8]; postemergence, 8 g ai/ha",70
same,"Plant response rating, Dayflower, VA","[9]; Postemergence, 16 g ai/ha",50
same,"Plant response rating, Dayflower, VA","[9]; Postemergence, 31 g ai/ha",40
same,"Plant response rating, Dayflower, VA","[9]; Postemergence, 125 g ai/ha",60
same,"Plant response rating, Dayflower, VA","[9]; postemergence, 62 g ai/ha",30 and 60
same,"Plant response rating, Dayflower, VA","[9]; postemergence, 8 g ai/ha",25
same,"Plant response rating, Waterhemp_RES2","[10]; Postemergence, 16 g ai/ha",90
same,"Plant response rating, Waterhemp_RES2","[10]; Postemergence, 31 g ai/ha",98
same,"Plant response rating, Waterhemp_RES2","[10]; Postemergence, 125 g ai/ha",100
same,"Plant response rating, Waterhemp_RES2","[10]; postemergence, 62 g ai/ha",60 and 98
same,"Plant response rating, Waterhemp_RES2","[10]; postemergence, 8 g ai/ha",85
same,"Plant response rating, Waterhemp_RES1","[12]; Postemergence, 16 g ai/ha",90
same,"Plant response rating, Waterhemp_RES1","[12]; Postemergence, 31 g ai/ha",98
same,"Plant response rating, Waterhemp_RES1","[12]; Postemergence, 125 g ai/ha",100
same,"Plant response rating, Waterhemp_RES1","[12]; postemergence, 62 g ai/ha",90
same,"Plant response rating, Waterhemp_RES1","[12]; postemergence, 8 g ai/ha",85
same,"Plant response rating, Common Waterhemp","[11]; Postemergence, 16 g ai/ha",95
same,"Plant response rating, Common Waterhemp","[11]; Postemergence, 31 g ai/ha",100
same,"Plant response rating, Common Waterhemp","[11]; Postemergence, 125 g ai/ha",100
same,"Plant response rating, Common Waterhemp","[11]; postemergence, 62 g ai/ha",60 and 90
same,"Plant response rating, Common Waterhemp","[11]; postemergence, 8 g ai/ha",90
CCc1cc(C(=O)NCC(F)(F)F)nn1Cc1ccnc(Br)c1 [Compound 224],"Plant response rating, Cocklebur",[13]; 62 g ai/ha,0
same,"Plant response rating, Cocklebur",[13]; 125 g ai/ha,0

# Reference: US20150105252A1, “SUBSTITUTED PYRAZOLES AS HERBICIDES” (E I DU PONT DE NEMOURS AND COMPANY, priority 2013, published 2015)
